Laboratory results from BindingDB's records for doi:10.1021/jm070166b (Merck Research Laboratories, 2007).

Assay: Antagonist activity against human CCR2 receptor in human monocytes assessed as inhibition of chemotaxis

IC50: 57 nM
SMILES: C[C@H]1CN([C@@H]2CC[C@H](C(=O)NCc3cc(C(F)(F)F)cc(C(F)(F)F)c3)C2)CC[C@@]12C=Cc1ccccc12 [(1S,3R)-N-{[3,5-bis(trifluoromethyl)phenyl]methyl}-3-[(1R,5'R)-5'-methylspiro[indene-1,4'-piperidine]-1'-yl]cyclopentane-1-carboxamide]
